Values quoted from earlier work, collected in US20060111369A1, “Synthesis, characterization and biological action of optically active isomers of floxacins” (priority 2004, published 2006).

How the values were obtained:
[1] = tested on: gram-negative and gram-positive bacteria; conditions: against both gram-negative and gram-positive bacteria
[2] = effects on the CNS
[3] = according to the FDA
[4] = molecular target: IKr potassium current channel (Homo sapiens, UniProt Q12809)
Sequence of IKr potassium current channel (Q12809 whole entry): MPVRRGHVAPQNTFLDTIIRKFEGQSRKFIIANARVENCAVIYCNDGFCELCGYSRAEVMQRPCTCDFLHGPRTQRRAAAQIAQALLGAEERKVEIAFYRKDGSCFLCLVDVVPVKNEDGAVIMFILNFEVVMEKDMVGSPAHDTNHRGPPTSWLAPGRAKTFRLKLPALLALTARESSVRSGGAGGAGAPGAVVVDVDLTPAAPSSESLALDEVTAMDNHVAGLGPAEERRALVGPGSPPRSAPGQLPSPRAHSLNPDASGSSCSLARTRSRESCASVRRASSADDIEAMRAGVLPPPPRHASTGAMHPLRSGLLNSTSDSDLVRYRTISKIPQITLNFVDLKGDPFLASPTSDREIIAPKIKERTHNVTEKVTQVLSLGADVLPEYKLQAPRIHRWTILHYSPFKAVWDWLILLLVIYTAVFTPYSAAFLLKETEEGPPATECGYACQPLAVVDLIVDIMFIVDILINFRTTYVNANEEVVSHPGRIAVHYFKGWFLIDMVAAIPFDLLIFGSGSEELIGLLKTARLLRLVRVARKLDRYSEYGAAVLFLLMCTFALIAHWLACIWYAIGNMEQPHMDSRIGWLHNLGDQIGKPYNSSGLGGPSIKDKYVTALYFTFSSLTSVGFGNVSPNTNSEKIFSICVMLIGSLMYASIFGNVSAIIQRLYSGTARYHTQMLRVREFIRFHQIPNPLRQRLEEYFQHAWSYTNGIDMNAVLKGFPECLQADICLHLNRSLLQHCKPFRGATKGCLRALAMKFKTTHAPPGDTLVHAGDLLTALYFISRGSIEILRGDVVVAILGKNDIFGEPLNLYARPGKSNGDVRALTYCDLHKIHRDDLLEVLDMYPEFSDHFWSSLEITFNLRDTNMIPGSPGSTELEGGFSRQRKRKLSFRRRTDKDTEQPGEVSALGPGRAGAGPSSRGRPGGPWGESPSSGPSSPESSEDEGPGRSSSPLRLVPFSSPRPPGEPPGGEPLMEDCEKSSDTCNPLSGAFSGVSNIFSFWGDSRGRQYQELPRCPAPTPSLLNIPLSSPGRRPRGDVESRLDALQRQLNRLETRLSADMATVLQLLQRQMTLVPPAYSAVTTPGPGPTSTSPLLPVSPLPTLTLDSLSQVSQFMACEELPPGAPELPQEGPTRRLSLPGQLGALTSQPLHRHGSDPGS

Structure (SMILES): CC1COc2c(N3CCN(C)CC3)c(F)cc3c(=O)c(C(=O)O)cn1c23 (single isomer, unassigned; (-)) [(−)-Ofloxacin]
- activity relative to the racemate [1]: 8-128 times

Structure (SMILES): Cc1c(F)c(N2CCNC(C)C2)cc2c1c(=O)c(C(=O)O)cn2C1CC1 (centres unmarked) [grepafloxacin]
- cardiac adverse events in clinical trials (in words) (clinical trials): Heart-rhythm abnormalities were observed in some patients
- effect on QT interval (in words) (human, in vivo): prolong the QT interval

Structure (SMILES): C[C@H]1COc2c(N3CCN(C)CC3)c(F)cc3c(=O)c(C(=O)O)cn1c23 [levofloxacin]
- effect on QT interval (in words) (human, in vivo): prolong the QT interval

Structure (SMILES): COc1cc(N)c(Cl)cc1C(=O)NC1CCNCC1OC (centres unmarked) [Norcisapride]
- effect on QT interval (in words) (human, in vivo): does not

Structure (SMILES): CC(N)Cc1ccccc1 (centres unmarked) [AP, amphetamine]
- activity of S-isomer relative to R-isomer [2]: approximately five

Structure (SMILES): C[C@@H]1CN(c2c(F)c(N)c3c(=O)c(C(=O)O)cn(C4CC4)c3c2F)C[C@H](C)N1 [sparfloxacin]
- cardiac events per 10,000 prescriptions [3]: 145 per 10,000 prescriptions
- effect on QT interval (in words) (human, in vivo): prolong the QT interval

Structure (SMILES): CN[C@@H](C)Cc1ccccc1 [MAP, methamphetamine]
- activity of S-isomer relative to R-isomer [2]: approximately five

Structure (SMILES): COc1c(N2C[C@@H]3CCCN[C@@H]3C2)c(F)cc2c(=O)c(C(=O)O)cn(C3CC3)c12 [moxifloxacin]
- IKr blocker strength [4]: weak
- mean QT prolongation (human, in vivo): 6 ms
- outliners (QT prolongation) (human, in vivo): 38

Structure (SMILES): COc1cc(N)c(Cl)cc1C(=O)NC1CCN(CCCOc2ccc(F)cc2)CC1OC (centres unmarked) [cisapride]
- effect on QT interval (in words) (human, in vivo): causes QT prolongation and arrhythmias

Structure (SMILES): COc1c(N2CCNC(C)C2)c(F)cc2c(=O)c(C(=O)O)cn(C3CC3)c12 (centres unmarked) [gatifloxacin]
- effect on QT interval (in words) (human, in vivo): prolong the QT interval
